Test results reported in patent US11434468B2, “Lactic acid bacteria and its applications” (Bened Biomedical Co., Ltd., priority 2017, dated 2022).

How the values were obtained:
[1] = system: SH-SY5Y neuroblastoma cells; test: Cell viability (MTT) upon dexamethasone-induced neurotoxicity; assay type: cell-based, human; conditions: dexamethasone 25 μM, MTT 48 h after treatment, unfermented MRS control = 100% viability, FIG. 11
Method: Neuroblastoma cell line, SH-SY5Y cells were purchased from Korea Cell Line Bank (KCLB; Seoul, Korea). Cells were maintained in high glucose Dulbecco's Modified Eagle Medium (DMEM; Difco, Detroit, Mich., USA) supplemented with 10% heat-inactivated fetal bovine serum (FBS; Gibco Life Technologies Inc, Grand Island, N.Y., USA), 100 U/mL penicillin/streptomycin (Gibco Life Technologies Inc, Grand Island, N.Y., USA). Cultures were seeded into flasks containing supplemented medium and maintained at 37° C. in a humidified atmosphere of 5% CO2 and 95% air.
The SH-SY5Y cells were seeded into 96-well culture plates at a seeding density 1×10^5 cells per well. All cells in this study were maintained in 10% serum medium until the dexamethasone (Dex; Sigma-Aldrich, Steinheim, Germany) treatment. Cells were incubated for 24 h to allow attachment to the culture plate before treatment. […] The 3-(4, 5 dimethylthiazol-2-yl)-2,5-diphenyl-tetrazolium bromide (MTT; Sigma-Aldrich, Steinheim, Germany) reduction was analyzed 48 h after treatment.
Cell viability was measured by quantitative colorimetric assay with MTT, as described previously by Denizot and Lang (J Immunol Methods. 1986 May 22; 89(2):271-7.). […] Colorimetric determination of MTT reduction was measured at 570 nm using microplate reader (Thermo Scientific, Waltham, Mass., US). […]

[2] = system: rats subjected to chronic mild stress; test: Morris water maze after chronic mild stress; assay type: in vivo, rat; conditions: 4 weeks chronic mild stress, daily oral gavage, comparison between groups, P<0.05, FIG. 6(a)
Method: The diameter of the MWM used was 210 cm, where the height of the pool was 51 cm with non-reflective interior surfaces. The maze was placed in a room with a video camera set up on top of the maze to capture and record the animal's behavior. The water maze was filled up with water of temperature ranging within 19-22° C. to avoid the rats from getting temperature shock (hypothermia or hyperthermia). Then, a colorless and transparent circular goal or platform (designated as escape platform) with the diameter of 10-12 cm was submerged 1-2 cm below the water surface and ensured with stability to avoid tipping of animal when the rats climb on it.
The start locations of the MWM was designated at East, West and South East, while the escape platform is submerge at North East. A consecutive four daily trials were performed using these three start locations. Briefly, the animals were gently placed on the first start locations and allowed to swim freely to search for the escape platform. A maximum of two minutes was given for each animal to perform the search for the escape platform. All rats were dried thoroughly with clean towel after the Morris test before returning them to their respective cage. Time taken by each animal to locate the escape, escape latency (seconds) is expressed as mean±standard of mean from six replicates (n=6) per group. […]

[3] = system: rats subjected to chronic mild stress; test: Elevated plus maze after 4 weeks of chronic mild stress protocol; assay type: in vivo, rat; conditions: 4 weeks chronic mild stress, daily oral gavage (PS150 1×10^9 cfu; protein 300 mg/kg; alprazolam), 5 min, comparison between groups
Excerpt: The elevated plus maze (EPM) consists of four arms, two open arms without walls and two enclosed walls of 40 cm high, 50 cm long and 15 cm wide. Each arm of the maze is attached with firm metallic legs with 70 cm high. The EPM was placed in a room with bright lighting, close to the center of the room. The levels of illumination of both open and closed arms were maintained similar. A video camera was set up above the elevated plus maze to capture and record the animal's behavior.
Animal was taken out from its cage and placed at the middle (ie. the junction of the open and closed arm) of EPM, facing away from the maze towards the wall. Each animal was given 5 minutes to explore freely on the EPM. Throughout the assessment, the EPM was cleaned and dried with 70% ethanol before accessing the next animal. The number of open arm entries and time spent in open arms were observed, timed and recorded. The number of entries to open arms and the duration spent on open arms were recorded and expressed as mean±standard of means from six replicates (n=6) per group.
Analyses on rat behavior were carried out after 4 weeks of chronic mild stress protocol. […] Rats were placed at the junction of the four arms of the maze, facing an open arm, and entries/duration in each arm was recorded for 5 min. […]

[4] = system: rats subjected to chronic mild stress; test: Open field test after 4 weeks of chronic mild stress protocol; assay type: in vivo, rat; conditions: 4 weeks chronic mild stress, daily oral gavage, 5 min open field test
Method: Open field test was performed using an opaque rectangular box with the dimension of 32 cm high, 38 cm width and 52 cm long was placed in the center of the experiment room supplied with bright lighting. A video camera was set up above the rectangular box to capture the behavior of the animals.
Each animal was gently transferred from its cage into the OFT and allowed to freely explore inside the box. […] The box was cleaned with 70% ethanol during the interval of each test throughout the assessment. The duration of exploratory and immobility was expressed as mean±standard of mean from six replicates (n=6) per group.
The open field test is broadly used to assess exploratory behavior and validated for use in the measurement of anxiety-related behaviors. The procedure consists of subjecting the rat, to an unknown environment from which escape is prevented by surrounding walls. […] Increased exploratory behaviours in rats indicate less anxiety states, whereas immobility indicate anxiety behaviour in rats.

[5] = system: rats subjected to chronic mild stress; test: Forced swim test after 4 weeks of chronic mild stress protocol; assay type: in vivo, rat; conditions: 4 weeks chronic mild stress, daily oral gavage, 5 min forced swim test, comparison between groups, P<0.05, FIG. 3
Method: Forced swim test (FST) was performed in a black opaque swim cylinder with a depth of 68 cm and diameter of 40 cm. The cylinder was filled up with water to the depth of 30 cm, leaving some space on top to prevent the escape of rat. A video camera was set up above the swim cylinder to capture and record the animals' behavior during the test.
Each animal was gently placed into the water in the swim cylinder and was given 5 minutes to swim freely in the swim cylinder. The behavior of the animals were observed and recorded throughout the test. All rats were dried thoroughly with clean towel after the FST before returning them to their respective cage throughout the assessment. The duration of immobility of the rats were timed and then expressed as mean±standard of mean from six replicates (n=6) per group.
Forced swim test is one of the most commonly used assays for the study of depressive-like behavior in rodents. […] In forced swim test, a swimming cylinder filled with 30 cm depth of water. Depression assessment of rats was performed by scoring predominant behavior in each 5-s period of the 300-s test.

Row | Compound | Neuroprotective effect (cell viability) against dexamethasone [1] | Escape latency [2] | Number of entries into the open arms ([3]; P<0.05, FIG. 1(a)) | Ratio of time spent on the closed arms to the time spent on the open arms ([3]; P<0.05, FIG. 1(b)) | Duration of immobility ([4]; between naïve control, positive control, PS150 and protein fraction groups, FIG. 2) | Duration of exploratory activity ([4]; comparison between groups, P<0.05, FIG. 2) | Time spent immobile [5]
1 | fraction A: HPLC-purified fraction of the PS150 protein fraction, approximately 55 kDa, identified as elongation factor Tu (SEQ ID NO:4) | most prevalent neuroprotective effect |  |  |  |  |  | 
2 | Cc1nnc2n1-c1ccc(Cl)cc1C(c1ccccc1)=NC2 [alprazolam] |  | Insignificant difference | insignificant differences | insignificant differences | insignificantly different | insignificantly different | insignificantly different
